Laboratory results published in patent US7713994B2 (Wyeth LLC, priority 2005, dated 2010).
Read-outs that look alike come from different tables or passages of the source.

Tests used:
HCT-116 = experiment: Cytotoxicity assay (SRB), HCT-116; type: cell-based; details: HCT116 cells, SRB, three days, read-out: In Vitro Cellular Activity IC50 HCT116
Method in brief: (§1)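 Cells grown in RPMI 1640 with 5% FBS were treated with compound for three days (HCT-116, LoVo, MCF-7) or six days (BT474). Viable cell mass was quantified by sulforhodamine B staining of TCA-fixed protein and read at 540 nm.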

MCF-7 = experiment: Cytotoxicity assay (SRB), MCF-7; type: cell-based; details: MCF-7 cells, SRB, three days, read-out: In Vitro Cellular Activity IC50 MCF-7
Method in brief: as §1

SK-UT-1B = experiment: In Vitro Cellular Activity (Table III), SK-UT-1B; type: cell-based; details: SK-UT-1B cells
LoVo = experiment: Cytotoxicity assay (SRB), LoVo; type: cell-based; details: LoVo cells, SRB, three days, read-out: In Vitro Cellular Activity IC50 LOVO
Method in brief: as §1

BT474 = experiment: Cytotoxicity assay (SRB), BT474; type: cell-based; details: BT474 cells, SRB, 6 days, read-out: In Vitro Cellular Activity IC50 BT474
Method in brief: as §1

cyclin B/CDK1 enzyme = molecular target: T1, cyclin B/CDK1 enzyme (Homo sapiens, UniProt P06493); experiment: CDK1 ELISA kinase assay (phospho-Rb ser 795 detection); type: biochemical; details: In Vitro Enzyme Assays, read-out: CDK1 IC50
T1 construct: purchased New England BioLabs; host or cells: Sf9 insect cells, recombinant baculovirus
T1 sequence (P06493 whole entry): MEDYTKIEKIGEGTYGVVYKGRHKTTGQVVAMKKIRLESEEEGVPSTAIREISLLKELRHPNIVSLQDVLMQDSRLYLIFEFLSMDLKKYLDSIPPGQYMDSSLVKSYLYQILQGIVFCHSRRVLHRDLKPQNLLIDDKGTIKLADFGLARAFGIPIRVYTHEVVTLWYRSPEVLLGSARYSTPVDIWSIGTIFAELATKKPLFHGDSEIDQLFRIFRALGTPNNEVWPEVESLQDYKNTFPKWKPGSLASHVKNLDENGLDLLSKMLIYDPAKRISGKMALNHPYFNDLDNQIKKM
T1 sequence (P14635 whole entry partner): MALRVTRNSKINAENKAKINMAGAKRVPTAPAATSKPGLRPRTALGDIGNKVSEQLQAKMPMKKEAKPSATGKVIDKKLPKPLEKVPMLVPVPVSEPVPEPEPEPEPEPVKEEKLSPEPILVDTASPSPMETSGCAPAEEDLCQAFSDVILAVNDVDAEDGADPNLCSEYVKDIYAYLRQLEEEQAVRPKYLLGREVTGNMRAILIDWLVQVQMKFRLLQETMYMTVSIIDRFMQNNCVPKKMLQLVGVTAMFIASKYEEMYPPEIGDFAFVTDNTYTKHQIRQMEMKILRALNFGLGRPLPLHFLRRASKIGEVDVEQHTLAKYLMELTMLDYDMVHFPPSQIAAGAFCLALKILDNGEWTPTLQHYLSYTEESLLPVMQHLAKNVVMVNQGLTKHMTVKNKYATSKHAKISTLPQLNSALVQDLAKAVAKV
Method in brief: (§2)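 GST-Rb C-terminal fragment coated on plates; partially purified Sf9-expressed cyclin D1/CDK4, cyclin E/CDK2 or cyclin B/CDK1 with 200 μM ATP, pH 7.5 HEPES/MgCl2 buffer, 1 h at 30 °C; screen compound final 10 μg/ml. Phospho-Rb Ser795 detected by antibody ELISA (TMB, A450); % of control, IC50 from background-subtracted inhibition curves.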

cyclin D1/cdk 4 enzyme = molecular target: T2, cyclin D1/cdk 4 enzyme (Homo sapiens, UniProt P11802); experiment: CDK4 ELISA kinase assay (phospho-Rb ser 795 detection); type: biochemical; details: In Vitro Enzyme Assays, 200 μM ATP, read-out: CDK4 IC50
T2 construct: made in house; host or cells: Sf9 insect cells, recombinant baculovirus
T2 sequence (P11802 whole entry, species assumed): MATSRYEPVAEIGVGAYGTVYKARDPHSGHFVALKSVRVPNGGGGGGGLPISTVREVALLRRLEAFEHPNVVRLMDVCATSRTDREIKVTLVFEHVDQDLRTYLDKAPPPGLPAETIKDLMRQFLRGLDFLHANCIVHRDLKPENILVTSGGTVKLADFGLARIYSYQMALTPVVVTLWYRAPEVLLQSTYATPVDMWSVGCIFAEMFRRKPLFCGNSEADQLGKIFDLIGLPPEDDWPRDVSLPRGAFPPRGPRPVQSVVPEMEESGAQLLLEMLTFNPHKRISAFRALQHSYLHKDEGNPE
T2 sequence (P24385 whole entry partner, species assumed): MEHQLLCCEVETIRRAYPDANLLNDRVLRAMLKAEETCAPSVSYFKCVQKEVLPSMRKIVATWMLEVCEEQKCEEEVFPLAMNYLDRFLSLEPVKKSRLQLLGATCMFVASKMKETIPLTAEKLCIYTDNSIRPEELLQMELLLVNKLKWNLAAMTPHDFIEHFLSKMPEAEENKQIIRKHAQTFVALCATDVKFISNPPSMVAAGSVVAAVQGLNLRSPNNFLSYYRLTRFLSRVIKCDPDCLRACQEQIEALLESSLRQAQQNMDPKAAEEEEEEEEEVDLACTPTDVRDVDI
Method in brief: as §2

cyclin E/CDK2 enzyme = molecular target: T3, cyclin E/CDK2 enzyme (Homo sapiens, UniProt P24941); experiment: CDK2 ELISA kinase assay (phospho-Rb ser 795 detection); type: biochemical; details: In Vitro Enzyme Assays, read-out: CDK2 IC50
T3 construct: made in house; host or cells: Sf9 insect cells, recombinant baculovirus
Method in brief: as §2

Compound	IC50 (SK-UT-1B; Homo sapiens, Skut1B)	melting point	IC50 (cyclin B/CDK1 enzyme)	IC50 (cyclin D1/cdk 4 enzyme)	IC50 (cyclin E/CDK2 enzyme)	IC50 (SK-UT-1B)	IC50 (HCT-116; Homo sapiens, HCT-116, 72 h)	IC50 (MCF-7; Homo sapiens, MCF7, 72 h)	IC50 (LoVo; Homo sapiens, LoVo, 72 h)	IC50 (BT474; Homo sapiens, BT-474, 144 h)	IC50 (HCT-116)	IC50 (MCF-7)	IC50 (LoVo)	IC50 (BT474)
Cn1ccnc1Sc1ccc(N/C=C2\C(=O)NC(=O)c3ccccc32)cc1Cl [Example 14, (4Z-4-[{3-Chloro-4[(1-methyl-1H-imidazole-2-uy)thio]phenyl}amino)methylene]isoquinoline-1,3(2H,4H)-dione]	18.4 µM	264 to 265 °C					8.7 µM	> 50 µM	> 50 µM	38 µM				
O=C1NC(=O)c2ccccc2/C1=C/Nc1cccc(CN2CCCCC2)c1 [Example 16, (4Z)-4-({[3-(Piperidin-1-ylmethyl)phenyl]amino}methylene)isoquinoline-1,3(2H,4H)-dione]	18.5 µM	173 to 174 °C					14 µM	19 µM	14 µM	45 µM				
O=C1NC(=O)c2ccccc2/C1=C/Nc1cccc(CN2CCCCCC2)c1 [Example 17, (4Z)-4-({[3-(Azepan-1-ylmethyl)phenyl]amino}methylene)isoquinoline-1,3(2H,4H)-dione]	16 µM	116 to 117 °C					14 µM	20 µM	19 µM	30 µM				
O=C1NC(=O)c2ccccc2/C1=C/Nc1cccc(CN2CCCC2)c1 [Example 18, (4Z)-4-({[3-(Pyrrolidin-1-ylmethyl)phenyl]amino}methylene)isoquinoline-1,3(2H,4H)-dione]	15.8 µM	172 to 173 °C					15 µM	15 µM	23 µM	31 µM				
CN1CCN(Cc2ccc(N/C=C3\C(=O)NC(=O)c4ccccc43)cc2)CC1 [Example 20]	18.5 µM	231 to 232 °C	> 26 µM	6.7 µM			10 µM	14 µM						
O=C1NC(=O)c2ccccc2/C1=C/Nc1ccc(-c2ccccc2)cc1 [Example 21, (4Z)-4-[(1,1′-Biphenyl-4-ylamino)methylene]isoquinoline-1,3(2H,4H)-dione]	19.7 µM	261 to 262 °C					> 50 µM	> 50 µM	> 50 µM	> 50 µM				
O=C1NC(=O)c2ccc(Br)cc2/C1=C/Nc1ccc(CN2CCCCC2)cc1 [Example 24, (4Z)-6-Bromo-4-{[(4-piperidin-1-ylmethyl)phenyl]amino}methyleneisoquinoline-1,3(2H,4H)-dione]	7.8 µM	222 to 225 °C	> 50 µM				5 µM	3.1 µM	6 µM	4.8 µM				
COc1cc(CN/C=C2\C(=O)NC(=O)c3ccc(Br)cc32)ccc1O [Example 28, (4Z)-6-Bromo-4-{[(4-hydroxy-3-methoxybenzyl)amino]methylene}isoquinoline-1,3(2H,4H)-dione]	33 µM	260 to 261 °C					28 µM	> 50 µM	> 50 µM	39 µM				
CC(C)(C)OC(=O)N1CCN(Cc2ccc(N/C=C3\C(=O)NC(=O)c4ccccc43)cc2)CC1 [Example 34]	15 µM	219 to 220 °C					14 µM	38 µM	> 50 µM	25 µM				
O=C1NC(=O)c2ccc(Br)cc2/C1=C/Nc1ccccc1CN1CCCCC1 [Example 41, (4Z)-6-Bromo-4-({[2-(piperidin-1-ylmethyl)phenyl}amino)methylene]isoquinolin-1,3(2H,4H)-dione]	11 µM	170 to 171 °C					39 µM	13 µM	49 µM	25 µM				
(4E)-4-(2,3-dimethoxybenzylidene)isoquinoline-1,3(2H,4H)-dione-(4Z)-4-(2,3-dimethoxybenzylidene)isoquinoline-1,3(2H,4H)-dione (1:1) [Example 9]			> 32 µM	> 50 µM	> 32 µM	15.1 µM					2.5 µM	9.7 µM	6.8 µM	48 µM
(4E)-4-[4-(dimethylamino)benzylidene]isoquinoline-1,3(2H,4H)-dione-(4Z)-4-[4-(dimethylamino)benzylidene]isoquinoline-1,3(2H,4H)-dione (1:1) [Example 10]			> 34 µM	> 50 µM	> 34 µM	23.6 µM					2.3 µM	12.5 µM	5.9 µM	> 50 µM

Second part, led by results:

IC50 (SK-UT-1B; Homo sapiens, Skut1B)	melting point	IC50 (cyclin B/CDK1 enzyme)	IC50 (cyclin D1/cdk 4 enzyme)	IC50 (cyclin E/CDK2 enzyme)	IC50 (SK-UT-1B)	Compound	IC50 (HCT-116; Homo sapiens, HCT-116, 72 h)	IC50 (MCF-7; Homo sapiens, MCF7, 72 h)	IC50 (LoVo; Homo sapiens, LoVo, 72 h)	IC50 (BT474; Homo sapiens, BT-474, 144 h)	IC50 (HCT-116)	IC50 (MCF-7)	IC50 (LoVo)	IC50 (BT474)
3.6 µM		> 50 µM	1.4 µM	> 50 µM		CN1CCN(c2ccc(N/C=C3\C(=O)NC(=O)c4ccc(Br)cc43)cc2)CC1 [Example 27, (4Z)-6-Bromo-4-({[4-(4-methylpiperazin-1-yl)phenyl}amino}methylene)isoquinoline-1,3(2H,4H)-dione]	3.1 µM	3 µM	3.8 µM	3.1 µM				
3.3 µM		7.2 µM	11 µM	> 50 µM		CN1CCN(c2ccc(N/C=C3\C(=O)NC(=O)c4ccc([N+](=O)[O-])cc43)cc2)CC1 [Example 33, (4Z)-6-Nitro-4-({[4-(4-methylpiperazin-1-yl)phenyl}amino}methylene)isoquinoline-1,3(2H,4H)-dione]	3.3 µM	11 µM	3.2 µM	5.2 µM				
3.5 µM	242 to 243 °C					O=C1NC(=O)c2cc(Br)ccc2/C1=C/Nc1ccc(CN2CCCCC2)cc1 [Example 44, (4Z)-7-Bromo-4-({[4-(Piperidin-1-ylmethyl)phenyl]amino}methylene)isoquinoline-1,3(2H,4H)-dione]	3.6 µM	6.6 µM	4 µM	4.6 µM				
4.4 µM		> 32 µM	42 µM	13 µM		O=C1NCc2ccccc2/C1=C/Nc1ccc(-c2c[nH]cn2)cc1 [compound 3]	7.8 µM	11 µM	12 µM	20 µM				
4.9 µM		> 50 µM	> 50 µM	1.4 µM		O=C1NC(=O)c2ccc(Br)cc2/C1=C/NCc1cccnc1 [compound 30]	9.2 µM	15 µM	14 µM	31 µM				
